Data reported in patent US20040192699A1, “Optic nerve protecting agents containing alpha1 receptor blocker as active ingredient” (Santen Pharmaceutical Co., Ltd., priority 2001, published 2004).
Counter-ions that a name gives are not always drawn.

Key:
[1] = test system: rat fetal retinal nerve cells in culture; test: Death of rat fetal retinal nerve cells in culture induced by glutamate addition (trypan blue dye exclusion); assay type: cell-based; settings: 10 min, then 1 h drug-free, average
Procedure: (1) The action of the α1 receptor blocker on the death of rat fetal retinal nerve cells in culture as induced by glutamate addition
Retinal cells were taken out of a rat fetus (age of E18 days) and isolated, then cultured in an Eagle's basal culture medium containing 10% bovine fetus serum on a polyethylene imine-coated plastic cover slip for 7 days (37° C., 5% CO2/95% air). On the eighth day and thereafter, the cells were cultured in an Eagle's basal culture medium containing 10% horse serum. On the sixth day of the cultivation, cytosine arabinoside (10 μM) was added to suppress the growth of non-neuronal cells. On the eleventh day of the cultivation, the cells were cultured in a serum-free Eagle's basal culture medium supplemented with glutamate (1 mM) and an a, receptor blocker, for 10 minutes. Then, the cells were transferred to a serum-free Eagle's basic culture medium with no content of glutamate and an α1 receptor blocker, and cultured for one hour. Subsequently, toxicity was determined by the trypan blue dye exclusion method. Specifically, the cells were stained with 1.5% trypan blue solution for 10 minutes, fixed in 10% neutral formalin solution and rinsed with physiological saline. Subsequently, the cells were counted with a phase contrast microscope. The cells stained with trypan blue were defined as dead cells, while the cells never stained were defined as live cells. Based on the rate of the live cells to the total cells (200 or more), the survival rate of the culture cells was determined. A group with the addition of 1 mM glutamate alone and a group with the addition of both 1 mM glutamate and an α1 receptor blocker were defined as “1 mM glutamate single-addition group” and “group of 1 mM glutamate+α1 receptor blocker addition”, respectively. […] At this experiment, bunazosin hydrochloride, prazosin hydrochloride, terazosin hydrochloride and naftopidil hydrochloride were used as such α1 receptor blockers.

[2] = test system: rat fetal retinal nerve cells in culture; test: Death of rat fetal retinal nerve cells in culture induced by serum elimination (trypan blue dye exclusion; TUNEL method); assay type: cell-based; set-up: dose or concentration left out as unconfirmed; settings: serum elimination + test compound, 24 hours, average
Procedure: (2) The action of the a, receptor blocker on the death of rat fetal retinal nerve cells in culture as induced by serum elimination
Retinal cells were taken out of a rat fetus (age of E18 days) and isolated, then cultured in an Eagle's basal culture medium containing 10% bovine fetus serum on a polylysine-coated glass cover slip for 7 days (37° C., 5% CO2/95% air). On the eighth day and thereafter, the cells were cultured in an Eagle's basal culture medium containing 10% horse serum. On the sixth day of the cultivation, cytosine arabinoside (10 μM) was added to suppress the growth of non-neuronal cells. […] Subsequently, toxicity was determined by the trypan blue dye exclusion method. Specifically, the cells were stained with 1.5% trypan blue solution for 10 minutes, fixed in 10% neutral formalin solution and rinsed with physiological saline. Subsequently, the cells were counted with a phase contrast microscope. […] Based on the rate of the live cells to the total cells (200 or more), the survival rate of the culture cells was determined. Using the TUNEL method, additionally, the TUNEL-positive cells (apoptosis cells) increasing due to the serum elimination and the TUNEL-negative cells (live cells) were counted, to calculate the rate of the TUNEL-positive cells to the total cells. […]

[3] = 1 mM glutamate + 10 μM test compound
[4] = 1 mM glutamate + 0.1 μM test compound

| Compound | Survival rate (%) of retinal nerve cells in culture [1, 3] [%] | Survival rate (%) of retinal nerve cells in culture ([1]; 1 mM glutamate + 100 μM test compound) [%] | Rate (%) of TUNEL-positive cells ([2]; TUNEL method) [%] | Survival rate (%) of retinal nerve cells in culture [2] [%] | Survival rate (%) of retinal nerve cells in culture [1, 4] [%] | Survival rate (%) of retinal nerve cells in culture ([1]; 1 mM glutamate + 1 μM test compound) [%] | Survival rate (%) of retinal nerve cells in culture ([1]; 1 mM glutamate + 0.01 μM test compound) [%] |
| --- | --- | --- | --- | --- | --- | --- | --- |
| CCCC(=O)N1CCCN(c2nc(N)c3cc(OC)c(OC)cc3n2)CC1 [bunazosin HCl, bunazosin hydrochloride] | 55.2 | 55.9 | 13 | 80 | – | – | – |
| COc1ccccc1N1CCN(CC(O)COc2cccc3ccccc23)CC1 (stereo not shown) [naftopidil HCl, naftopidil hydrochloride] | 68.9 | – | – | – | 59.2 | – | – |
| COc1cc2nc(N3CCN(C(=O)c4ccco4)CC3)nc(N)c2cc1OC [prazosin HCl, prazosin hydrochloride] | 67.1 | – | – | – | – | 65.2 | – |
| COc1cc2nc(N3CCN(C(=O)C4CCCO4)CC3)nc(N)c2cc1OC (stereo not shown) [terazosin HCl, terazosin hydrochloride] | – | – | – | – | 70.7 | – | 69.8 |
